Test results taken from patent US20250042922A1, “KRAS MODULATING COMPOUNDS” (priority 2023, published 2025).
Like-named read-outs stand apart in the source and are kept apart here.

What was measured:
[1] = target: GDP-loaded wild-type KRAS (WT) (Homo sapiens, UniProt P01116); assay: KRAS (GDP) biochemical TR-FRET probe displacement assay, WT; assay type: binding; conditions: 2 hours
Protocol: (§1) Compounds are tested for binding to GDP-loaded wild-type KRAS (WT), KRAS-G12C, KRAS-G12D, and KRAS-G12V in a 384-well assay format using a TR-FRET probe displacement assay in buffer consisting of 50 mM Hepes (pH 7.4), 150 mM NaCl, 5 mM MgCl2 and 0.005% Tween-20. […] Compounds are serially diluted (1:3) in DMSO. The LabCyte ECHO Acoustic dispenser was used to pre-spot the assay plates (384-well Non-Binding Surface plates, Corning, Catalog #3824) with 50 nL of compound. 5 μL of 2X enzyme concentration is added to the pre-spotted plates and incubated for 30 minutes before adding 5 μL of 2X concentration of Eu-streptavidin and Cy-5 labelled probe (10 μL final reaction volume). The plates are incubated at room temperature for 2 hours before measuring TR-FRET ratio (665 nm/615 nm) on the Envision multimode plate reader. The ratios are normalized to a positive (saturating concentration of known inhibitor) and negative (DMSO) control and plotted against the log of compound concentration.

GDP-loaded KRAS-G12C = GDP-loaded KRAS-G12C (Homo sapiens, UniProt P01116, G12C); assay: KRAS (GDP) biochemical TR-FRET probe displacement assay, G12C; assay type: binding; conditions: 2 hours
Protocol: as §1

[2] = system: cellular pERK in ASPC-1 (KRAS G12D) cells; assay: Cell based pERK assay, ASPC-1; conditions: Homo sapiens, read-out: AsPC1 pERK EC50
Summary of the method: (§2)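 Cells seeded overnight (5000 AsPC-1 or 7500 others per well; RPMI/10% FBS, DMEM/10% FBS for MIA-PaCa-2), treated with 1:3 serial dilutions for 2 h at 37 °C. Phospho-ERK1/2 (Thr202/Tyr204) measured by HTRF (665/615 nm) after overnight lysis, normalized to DMSO and saturating known-inhibitor controls.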

GDP-loaded KRAS-G12D = GDP-loaded KRAS-G12D (Homo sapiens, UniProt P01116, G12D); assay: KRAS (GDP) biochemical TR-FRET probe displacement assay, G12D; assay type: binding; conditions: 2 hours
Protocol: as §1

GDP-loaded KRAS-G12V = GDP-loaded KRAS-G12V (Homo sapiens, UniProt P01116, G12V); assay: KRAS (GDP) biochemical TR-FRET probe displacement assay, G12V; assay type: binding; conditions: 2 hours
Protocol: as §1

[3] = system: cellular pERK in MIA-PaCa-2 (KRAS-G12C) cells; assay: Cell based pERK assay, MIA-PaCa-2; conditions: Homo sapiens, read-out: MIAPaCa2 pERK EC50
Summary of the method: as §2

[4] = system: cellular pERK in Kuramochi (WT KRAS) cells; assay: Cell based pERK assay, Kuramochi; conditions: read-out: Kuramochi pERK EC50
Summary of the method: as §2

[5] = system: cellular pERK in NCI-H441 (KRAS-G12V) cells; assay: Cell based pERK assay, NCI-H441; conditions: Homo sapiens, read-out: H441 PERK EC50
Summary of the method: as §2

[6] = ASPC1, ASPC-1 (KRAS G12D), 2 hours incubation, HTRF phospho-ERK1/2
[7] = MIA-PaCa-2 (KRAS-G12C), 2 hours incubation, HTRF phospho-ERK1/2
[8] = Kuramochi (WT KRAS), 2 hours incubation, HTRF phospho-ERK1/2
[9] = NCI-H441 (KRAS-G12V), 2 hours incubation, HTRF phospho-ERK1/2

GDP-loaded KRAS-G12D, sequence (P01116 1-188 isoform P01116-2 G12D): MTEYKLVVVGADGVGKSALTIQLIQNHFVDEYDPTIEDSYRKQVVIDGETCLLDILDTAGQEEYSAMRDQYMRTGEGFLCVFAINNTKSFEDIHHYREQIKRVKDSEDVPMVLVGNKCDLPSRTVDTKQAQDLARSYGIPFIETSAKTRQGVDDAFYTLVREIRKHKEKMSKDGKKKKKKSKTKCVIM
GDP-loaded KRAS-G12V, sequence (P01116 1-188 isoform P01116-2 G12V): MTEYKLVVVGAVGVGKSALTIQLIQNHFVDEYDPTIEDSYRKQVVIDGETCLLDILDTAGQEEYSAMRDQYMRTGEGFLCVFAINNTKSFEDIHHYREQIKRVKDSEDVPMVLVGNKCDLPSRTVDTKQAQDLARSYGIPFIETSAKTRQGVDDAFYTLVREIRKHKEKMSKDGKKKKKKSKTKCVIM
GDP-loaded KRAS-G12C, sequence (P01116 1-188 isoform P01116-2 G12C): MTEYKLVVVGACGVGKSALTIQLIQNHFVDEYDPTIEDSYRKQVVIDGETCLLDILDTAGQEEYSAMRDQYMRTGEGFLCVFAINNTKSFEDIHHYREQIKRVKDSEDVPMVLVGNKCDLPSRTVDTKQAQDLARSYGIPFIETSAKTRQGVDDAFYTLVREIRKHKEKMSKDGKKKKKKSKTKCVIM
GDP-loaded wild-type KRAS (WT), sequence (P01116 1-188 isoform P01116-2): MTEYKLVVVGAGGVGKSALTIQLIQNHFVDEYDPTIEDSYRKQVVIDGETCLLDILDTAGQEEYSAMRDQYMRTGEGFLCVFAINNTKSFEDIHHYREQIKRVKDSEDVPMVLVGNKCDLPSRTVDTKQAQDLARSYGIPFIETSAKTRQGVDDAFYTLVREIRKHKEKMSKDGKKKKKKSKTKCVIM

SMILES | IC50 [1] [nM] | IC50 (GDP-loaded KRAS-G12C) [nM] | EC50 [2, 6] [nM] | IC50 (GDP-loaded KRAS-G12D) [nM] | IC50 (GDP-loaded KRAS-G12V) [nM] | EC50 [3, 7] [nM] | EC50 [4, 8] [nM] | EC50 [5, 9] [nM] | EC50 ([2]; ASPC1, 2 h) [nM] | EC50 ([3]; MIA PaCa-2, 2 h) [nM] | EC50 ([4]; 2 h) [nM] | EC50 ([5]; NCI-H441, 2 h) [nM]
C/C=C\c1c(Cl)cc2[nH]ncc2c1-c1nc2c3c(nc(OCC45CCCN4CCC5)nc3c1F)N1C[C@@]3(F)CC[C@](F)(N3)[C@H]1CCC2 [Example 4-26, (4S,7R,8R)-14-[6-chloro-5-[(Z)-prop-1-enyl]-1H-indazol-4-yl]-4,7,15-trifluoro-18-(1,2,3,5,6,7-hexahydropyrrolizin-8-ylmethoxy)-2,13,17,19,21-pentazapentacyclo[10.7.1.14,7.02,8.016,20]henicosa-1(19),12(20),13,15,17-pentaene] | 1.85 | 1.24 | 45.4 | 6.69 | 4.33 | 0.785 | 4.34 | 31.4 | – | – | – | –
C[C@H]1Cc2nc(-c3cc(O)cc4ccc(F)c(Cl)c34)c(F)c3nc(OCC45CCCN4CCC5)nc(c23)N2C[C@@]3(F)CC[C@](F)(N3)[C@H]12 [Example 4-30, 5-chloro-6-fluoro-4-((5S,5aS,6R,9S)-1,6,9-trifluoro-5-methyl-12-((tetrahydro-1H-pyrrolizin-7a(5H)-yl)methoxy)-4,5,5a,6,7,8,9,10-octahydro-3,10a,11,13,14-pentaaza-6,9-methanonaphtho[1,8-ab]heptalen-2-yl)naphthalen-2-ol] | 0.092 | 0.194 | 18 | 0.869 | 0.405 | 0.365 | 1.94 | 4.88 | – | – | – | –
C[C@H]1Cc2nc(-c3cc(O)cc4ccc(F)c(F)c34)c(F)c3nc(OCC45CCCN4CCC5)nc(c23)N2C[C@@]3(F)CC[C@](F)(N3)[C@H]12 [Example 4-12, 5,6-difluoro-4-((5S,5aS,6R,9S)-1,6,9-trifluoro-5-methyl-12-((tetrahydro-1H-pyrrolizin-7a(5H)-yl)methoxy)-4,5,5a,6,7,8,9,10-octahydro-3,10a,11,13,14-pentaaza-6,9-methanonaphtho[1,8-ab]eptalene-2-yl)naphthalen-2-ol] | 0.086 | 0.172 | – | 1.16 | 0.353 | – | – | – | 29 | 0.944 | 1.71 | 3.7
Cn1ccc2cc(N)cc(-c3nc4c5c(nc(OCC67CCCN6CCC7)nc5c3F)N3C[C@@]5(F)CC[C@](F)(N5)[C@H]3CCC4)c2c1=O [Example 4-25] | > 100 | > 100 | > 1000 | > 100 | > 100 | > 1000 | > 1000 | > 1000 | – | – | – | –
Oc1cc(-c2nc3c4c(nc(OCC56CCCN5CCC6)nc4c2F)N2C[C@@]4(F)CC[C@](F)(N4)[C@H]2CCC3)c2c(OC(F)(F)F)c(F)ccc2c1 [Example 4-23, 6-fluoro-4-[(4S,7R,8R)-4,7,15-trifluoro-18-(1,2,3,5,6,7-hexahydropyrrolizin-8-ylmethoxy)-2,13,17,19,21-pentazapentacyclo[10.7.1.14,7.02,8.016,20]henicosa-1(19),12(20),13,15,17-pentaen-14-yl]-5-(trifluoromethoxy)naphthalen-2-ol] | 0.502 | 0.592 | 51.4 | 3.65 | 2.14 | 1.19 | 2.6 | 6.87 | – | – | – | –
